# Experimental data reported in patent publication US11701382B2, “Treatment of post-operative joint pain with polysulfated polysaccharides” (PARADIGM BIOPHARMACEUTICALS LTD., priority 2018, dated 2023).
# Experiments:
# Type in all cases: in vivo, human
# [1] = test system: patient with degenerative osteoarthritis in the left knee with bone marrow edema lesions; test: Bone marrow edema lesions (BMEL) assessed by MRI, left knee, patient treated with PPS
# Description: (§1) Example 1 is a study of the safety, tolerability and result of a patient treated with PPS suffering from degenerative osteoarthritis in the left knee with bone marrow edema lesions (BMEL), as assessed by magnetic resonance imaging (MRI), and from persistent pain following total right knee arthroplasty.
# (§2) The patient had end stage osteroarthrtis (OA) in their right knee. They underwent a total knee replacement (TKR) in the right knee and had aseptic, persistent pain from that joint post replacement. They also had pain in their left knee (degenerative osteoarthritis) and was recommended to have a TKR in that joint.
# (§3) They were treated with PPS. The treatment regimen consisted of administration of PPS, at a preferred dose of 2 mg/kg of body weight, twice weekly for three weeks by subcutaneous injection (total of six injections).
# (§4) The protocol featured the following: • Treatment regimen: 2× weekly subcutaneous injections of PPS (preferred dose 2 mg/kg) for 3 weeks (total of 6 injections)
# [2] = test system: patient with degenerative osteoarthritis in the left knee; test: Numerical Rating Scale (NRS) pain score, left knee with degenerative osteoarthritis, patient treated with PPS; details: left knee (degenerative OA); PPS 2 mg/kg SC twice weekly for 3 weeks (6 injections); 0-10 scale; before PPS 8
# Description: as §1, §2, §3, §4
# Numerical Rating Scale (NRS) is an 11-point scale (0-10). A state of no pain is 0 and the worst pain imaginable is 10.
# [3] = test system: patient with degenerative osteoarthritis in the left knee; test: Lysholm Knee Score (knee function), left knee, patient treated with PPS; details: left knee (degenerative OA); PPS 2 mg/kg SC twice weekly for 3 weeks; 0-100 scale; before PPS 58
# Description: as §1, §2, §3, §4
# Lysholm Knee Score is a total score of 0-100 is calculated based on the results from the eight functional components of the Lysholm knee score scale: Limp (5 points), Support (5 points), Locking (15 points), Instability (25 points), Pain (25 points), Swelling (10 points), Stair climbing (10 points), and Squatting (5 points). […]
# [4] = test system: patient with persistent pain following total right knee arthroplasty; test: Aseptic, persistent post-operative pain in right artificial knee joint after total knee replacement, patient treated with PPS; details: PPS 2 mg/kg SC twice weekly for 3 weeks
# Description: as §1, §2, §3, §4
# [5] = test system: patient with left knee osteoarthritis and persistent right knee pain following TKR; test: Safety and tolerability (adverse events) of PPS under TGA SAS(B); details: PPS 2 mg/kg SC twice weekly for 3 weeks, one patient
# Protocol: as §1
# The patient was treated with PPS under the TGA Special Access Scheme (B). (Approval to use PPS as treatment for the patient was acquired from Department of Health—Therapeutic Goods Administration, Australian Government under the Special Access Scheme (SAS) since the injectable form of PPS was not a registered product in Australia.)
# as §3
substance,measurement,setting,value
Pentosan polysulfate [PPS],BMEL reduction as assessed by magnetic resonance imaging,[1]; PPS 2 mg/kg SC twice weekly for 3 weeks,clearly visible BMEL reduction
same,"bone marrow edema stage, post-treatment MRI","[1]; after PPS, at baseline up to two thirds",negligible
same,After PPS/NRS Pain,[2],0
same,After PPS/Lysholm Knee Score,[3],99
same,"aseptic, persistent pain in the right artificial joint",[4],zero
same,adverse events,[5],no adverse events were reported
